According to the NIST ThermoML archive (doi:10.1016/j.jct.2017.07.019):
Numbers after ± are expanded uncertainties. Blank lines part the entries; values can stand above or below the compound they belong to.

Details: Liquid, Ebulliometric method (Recirculating still)

- vapor or sublimation pressure (373.05 K): 101.3 ± 0.6 kPa
SMILES: O [water]

SMILES: Cc1ccc(C)cc1 [1,4-dimethylbenzene]
- vapor or sublimation pressure (411.45 K): 101.3 ± 0.7 kPa

- vapor or sublimation pressure (382.15 K): 101.3 ± 0.6 kPa
SMILES: OCC(F)(F)C(F)F [2,2,3,3-tetrafluoro-1-propanol]

- vapor or sublimation pressure (334.35 K): 101.3 ± 0.7 kPa
SMILES: ClC(Cl)Cl [trichloromethane]
